Assay results from patent publication US20020115699A1, “Method for treating renal disease” (SmithKline Beecham p.l.c., priority 1994, published 2002).
Several values for one entry are separate records, joined by “and”; a condition that tells them apart may be missing. Identical values can stand only once.

How the values were obtained:
obese Zucker fa/fa rats = experiment: Renal histopathology after 3 months dietary administration in obese Zucker fa/fa rats; assay type: in vivo, rat; design: key to Hydronephrosis (histopathological severity, kidney) / Chronic Nephropathy (histopathological severity, kidney): 0: None seen; ±: Minimal; +: Mild; + +: Moderate; + + +: Marked
Method: Obese Zucker rats are known to develop chronic nephropathy in addition to hyperlipidaemia, hyperinsulinaemia and peripheral insulin resistance (Kasiske et al 1985).
5-[4- [2-(N-methyl-N-(2-pyridyl)amino)ethoxy]benzyl]thiazolidine-2,4-dione (herein after referred to as ‘test compound’) was administered to 2-3 month old obese Zucker fa/fa rats by dietary administration to provide a daily dose over a period of 3 months ranging from 2.0-7.0 μmole/kg body weight. A group of age-matched obese Zucker fa/fa rats were given the same diet without the addition of the test compound, as was a group of lean Fa/? rats. At the end of the study, all of the control Zucker fa/fa rats had chronic nephropathy which involved dilated tubules, atrophied or hyperplastic tubular epithelial cells, thickened tubular basement membranes, segmented glomeruli or global glomerulosclerosis.
In the corresponding lean animals, 3/15 animals, a minimal degree of chronic nephropathy was seen.
Characteristically this involved dilation of the kidney pelvis.

[1] = test system: Zucker fatty (fa/fa) rats; experiment: Systolic blood pressure (tail cuff) in 9 month Zucker rat study; assay type: in vivo; settings: for SYSTOLIC BLOOD PRESSURE: Zucker fatty rats
Method: A second study was performed in Zucker rats over a period of 9 months to investigate the longitudinal effects of the drug on systolic blood pressure and various indices of renal function, two of which are exemplified here. In one arm of the study, the drug was given in the diet (50 μmole/kg of diet) from aged 6-7 weeks in Zucker fatty (fa/fa) rats, whilst in a second arm of the study, drug treatment as above was delayed until proteinuria had become established after 4 months, indicative of structural damage already present in the kidneys. A third group of Zucker fatty rats and a further group of lean rats were given diet alone throughout the period of study.
After dosing with the test compound, at monthly intervals measurements were made of systolic blood pressure, urinary total protein and urinary N-acetyl β-D-glucosaminidase (NAG) activity.
Rats were enclosed in custom-built restrainers and placed on a shelf in a warming cabinet, whose temperature was controlled at approximately 30° C. An inflatable cuff with integral pulse sensor was attached to the tail of each rat. After warming for 20-30 min the tail cuff was inflated and deflated automatically and a measurement of systolic blood pressure made using an IITC Non-Invasive Blood Pressure Monitor. This cycle was repeated several times for each rat until stable values of blood pressure were obtained.
In the tables below, results are given as mean values for the group ±the standard error of the mean. Results have been analysed by one way ANOVA and significant differences from the Zucker fatty rat control group have been indicated by an asterisk.

[2] = test system: Zucker fatty (fa/fa) rats; experiment: Urinary total protein (Bio-Rad dye-binding assay, 24 h urine) in 9 month Zucker rat study; assay type: in vivo; settings: for URINARY PROTEIN CONCENTRATION: Zucker fatty rats, 50 μmol/kg of diet from age 6-7 weeks (prior to renal complications), mean ± SEM
Method: A second study was performed in Zucker rats over a period of 9 months to investigate the longitudinal effects of the drug on systolic blood pressure and various indices of renal function, two of which are exemplified here. […] A third group of Zucker fatty rats and a further group of lean rats were given diet alone throughout the period of study. After dosing with the test compound, at monthly intervals measurements were made of systolic blood pressure, urinary total protein and urinary N-acetyl β-D-glucosaminidase (NAG) activity. Twenty-four hour urine collections, made in metabolism cages, were aliquoted and frozen at −70° C. until required for assay. Urinary protein concentration was measured using the Bio-Rad protein assay as modified for use in a 96-well microtitre plate. The assay is a dye-binding assay based on the differential colour change of a dye in response to various concentrations of protein (Bradford, Anal. Biochem., 72, 248, 1976). After a period of incubation with Dye Reagent, diluted urine samples are read at an optical density of 595 nm using a Molecular Devices multiplate reader.

[3] = individual obese Zucker fa/fa rats, test compound in diet 2.0-7.0 μmole/kg body weight daily, 3 months
[4] = Zucker fatty (fa/fa) rats treated from age 6-7 weeks for 9 months via the diet

`CN(CCOc1ccc(CC2SC(=O)NC2=O)cc1)c1ccccn1` (centres unmarked) [Test Compound, 5-[4-[2-(N-methyl-N-(2-pyridyl)amino)ethoxy]benzyl]thiazolidine-2,4-dione] was tested, and the “Chronic Nephropathy (histopathological severity, kidney)” value (obese Zucker fa/fa rats; [3]) was “+ and ± (8×) and 0 and + +”, the “Hydronephrosis (histopathological severity, kidney)” value (obese Zucker fa/fa rats; [3]) was 0 and the “incidence and degree of chronic nephropathy” value (obese Zucker fa/fa rats; obese Zucker fa/fa rats, 3 months in diet, compared to control Zucker fa/fa rats) was “reduction in the incidence and degree of chronic nephropathy”. The hydronephrosis (obese Zucker fa/fa rats; obese Zucker fa/fa rats, 3 months in diet, control 4/9 mild-moderate) was “No hydronephrosis was seen”, the development of hypertension [1, 4] was “prevented the development of hypertension” and the “SYSTOLIC BLOOD PRESSURE” value ([1]; 50 μmol/kg of diet from age 6-7 weeks (prior to renal complications), treatment duration 0 months, mean ± SEM) was 102 ± 3 mm Hg. The “SYSTOLIC BLOOD PRESSURE” value ([1]; 50 μmol/kg of diet from age 6-7 weeks (prior to renal complications), treatment duration 1 month, mean ± SEM) was 110 ± 3 mm Hg, the “SYSTOLIC BLOOD PRESSURE” value ([1]; 50 μmol/kg of diet from age 6-7 weeks (prior to renal complications), treatment duration 2 months, mean ± SEM) was 122 ± 4 mm Hg and the “SYSTOLIC BLOOD PRESSURE” value ([1]; 50 μmol/kg of diet from age 6-7 weeks (prior to renal complications), treatment duration 3 months, mean ± SEM) was 122 ± 4 mm Hg. For the same molecule, the “SYSTOLIC BLOOD PRESSURE” value ([1]; 50 μmol/kg of diet from age 6-7 weeks (prior to renal complications), treatment duration 4 months, mean ± SEM) was 126 ± 6 mm Hg, the “SYSTOLIC BLOOD PRESSURE” value ([1]; 50 μmol/kg of diet from age 6-7 weeks (prior to renal complications), treatment duration 5 months, mean ± SEM) was 131 ± 4 mm Hg and the “SYSTOLIC BLOOD PRESSURE” value ([1]; 50 μmol/kg of diet from age 6-7 weeks (prior to renal complications), treatment duration 6 months, mean ± SEM) was 128 ± 3 mm Hg. The “SYSTOLIC BLOOD PRESSURE” value ([1]; 50 μmol/kg of diet from age 6-7 weeks (prior to renal complications), treatment duration 7 months, mean ± SEM) was 125 ± 6 mm Hg, the “SYSTOLIC BLOOD PRESSURE” value ([1]; 50 μmol/kg of diet from age 6-7 weeks (prior to renal complications), treatment duration 8 months, mean ± SEM) was 133 ± 5 mm Hg and the “SYSTOLIC BLOOD PRESSURE” value ([1]; 50 μmol/kg of diet from age 6-7 weeks (prior to renal complications), treatment duration 9 months, mean ± SEM) was 143 ± 4 mm Hg. For the same molecule, the “SYSTOLIC BLOOD PRESSURE” value ([1]; 50 μmol/kg of diet started once renal complications established (after 4 months), treatment duration 0 months, mean ± SEM) was 146 ± 4 mm Hg, the “SYSTOLIC BLOOD PRESSURE” value ([1]; 50 μmol/kg of diet started once renal complications established (after 4 months), treatment duration 1 month, mean ± SEM) was 140 ± 5 mm Hg and the “SYSTOLIC BLOOD PRESSURE” value ([1]; 50 μmol/kg of diet started once renal complications established (after 4 months), treatment duration 2 months, mean ± SEM) was 134 ± 3 mm Hg. The “SYSTOLIC BLOOD PRESSURE” value ([1]; 50 μmol/kg of diet started once renal complications established (after 4 months), treatment duration 3 months, mean ± SEM) was 144 ± 3 mm Hg, the “SYSTOLIC BLOOD PRESSURE” value ([1]; 50 μmol/kg of diet started once renal complications established (after 4 months), treatment duration 4 months, mean ± SEM) was 139 ± 3 mm Hg and the “SYSTOLIC BLOOD PRESSURE” value ([1]; 50 μmol/kg of diet started once renal complications established (after 4 months), treatment duration 5 months, mean ± SEM) was 146 ± 6 mm Hg. For the same molecule, the “SYSTOLIC BLOOD PRESSURE” value ([1]; 50 μmol/kg of diet started once renal complications established (after 4 months), treatment duration −1 month (before start of drug), mean ± SEM) was 141 ± 6 mm Hg, the “SYSTOLIC BLOOD PRESSURE” value ([1]; 50 μmol/kg of diet started once renal complications established (after 4 months), treatment duration −2 months (before start of drug), mean ± SEM) was 138 ± 7 mm Hg and the “SYSTOLIC BLOOD PRESSURE” value ([1]; 50 μmol/kg of diet started once renal complications established (after 4 months), treatment duration −3 months (before start of drug), mean ± SEM) was 123 ± 5 mm Hg. The “SYSTOLIC BLOOD PRESSURE” value ([1]; 50 μmol/kg of diet started once renal complications established (after 4 months), treatment duration −4 months (before start of drug), mean ± SEM) was 106 ± 3 mm Hg, the SYSTOLIC BLOOD PRESSURE ([1]; drug treatment commenced after proteinuria had become established) was “prevented from rising further” and the “rate of development of proteinuria” value [2, 4] was “markedly reduced”. For the same molecule, the “URINARY PROTEIN CONCENTRATION” value ([2]; treatment duration 0 months) was 226 ± 15 µg/h, the “URINARY PROTEIN CONCENTRATION” value ([2]; treatment duration 1 month) was 373 ± 22 µg/h and the “URINARY PROTEIN CONCENTRATION” value ([2]; treatment duration 2 months) was 402 ± 22 µg/h. The “URINARY PROTEIN CONCENTRATION” value ([2]; treatment duration 3 months) was 221 ± 32 µg/h, the “URINARY PROTEIN CONCENTRATION” value ([2]; treatment duration 4 months) was 376 ± 54 µg/h and the “URINARY PROTEIN CONCENTRATION” value ([2]; treatment duration 5 months) was 1573 ± 105 µg/h. For the same molecule, the “URINARY PROTEIN CONCENTRATION” value ([2]; treatment duration 6 months) was 1585 ± 147 µg/h and the “URINARY PROTEIN CONCENTRATION” value ([2]; treatment duration 7 months) was 2124 ± 293 µg/h.
